US7030246B2, “Tetrahydroquinoline derivatives as stat6-modulators, preparation and use thereof” (Astrazeneca AB, priority 2001, dated 2006)
pIC50: −log10 of the molar value.

Tested on: STAT6 signaling pathway
Assay: Inhibition of STAT6-driven reporter gene activity (IL-4 induced luciferase in transfected U937 cells)
Assay type: cell-based
Settings: U-937; U937 cells stably transfected with IL-4 responsive luciferase reporter; 10 ng/ml recombinant human IL-4, 4–5 h; compound added 5 min before IL-4; read-out: IC50 (concentration of compound giving 50 percent inhibition of the luciferase response to addition of IL-4)
Text: The ability of the compounds described herein to inhibit STAT6 signaling pathway is manifested in their ability to inhibit STAT6 driven reporter gene activity.
The cytokine-responsive human cell line U937 were transfected with a reporter gene plasmid consisting of an interluekin 4 (IL-4) responsive promoter driving the heterologous firefly gene for luciferase. The reporter gene plasmid also contained a gene for neomycin resistance. The IL-4 responsive promoter were constructed by four oligomerized combined C/BEPβ and STAT6 binding sites with the nucleotide sequence […] in close contact with a TATA-box. Cells with a stable integration of the reporter gene plasmid were selected by cultivation in neomycin. Such transfected cells were used for IL-4 induction by adding 10 ng/ml recombinant human IL-4 to 0.5–1×10^6 cells per ml. IL-4 induction were carried out for 4–5 h. Thereafter the cells were lysed and luciferase activity determined by using standard techniques. Numbers measured are the mean fold induction (fold induction for U937 is defined as the luciferase response in an IL-4 treated U937 cell sample divided by the luciferase response in an untreated U937 cell sample). Typically, IL-4 stimulation gave 15–20 fold induction of the luciferase response. Compounds were added 5 min before IL-4 when tested in the reporter gene assay. Compound effect was expressed as the concentration of compound giving 50 percent inhibition (IC50) of the luciferase response to addition of IL-4.

Row | Compound | pIC50
1 | CC(=O)N1c2ccccc2[C@H](Nc2ccc(C)cc2)C[C@@H]1C (relative stereo) [No 27 Table I, (2S*,4R*)-1-Acetyl-2-methyl-N-(4-methylphenyl)-1,2,3,4-tetrahydro-4-quinolinamine] | 6.10
2 | CC(=O)N1c2ccccc2[C@H](Nc2ccc(C#N)cc2)C[C@@H]1C (relative stereo) [No 36 Table I, 4-{[(2S*,4R*)-1-acetyl-2-methyl-1,2,3,4-tetrahydro-4-quinolinyl]amino}benzonitrile] | 6.37
3 | CC(=O)N1c2ccc(I)cc2[C@H](Nc2ccccc2)C[C@@H]1C (relative stereo) [No 74 Table I, (2S*,4R*)-1-Acetyl-1,2,3,4-tetrahydro-6-iodo-2-methyl-N-phenyl-4-quinolinamine] | 6.74
